Measured values from patent US6541491B1, “4-mercaptopyrrolidine derivatives as farnesyl transferase inhibitors” (Zeneca Limited, priority 1995, dated 2003).
Counter-ions that a name gives are not always drawn.

Experiments:
[1] = molecular target: T1, Farnesyl protein transferase (FPT) (Homo sapiens, UniProt P49354+P49356); experiment: Farnesyl protein transferase (FPT) inhibition, tritiated farnesyl pyrophosphate incorporation into ras-CVIM; type: biochemical; conditions: FPT partially purified from human placenta; 300 nM tritiated farnesyl pyrophosphate, 120 nM ras-CVIM, 20 minutes at 37°
T1 construct: partially purified from human placenta by ammonium sulphate fractionation; from tissue; host or cells: human placenta
Experimental: Biological activity was tested as follows. Farnesyl protein transferase (FPT) was partially purified from human placenta by ammonium sulphate fractionation followed by a single Q-Sepharose® (Pharmacia. Inc) anion exchange chromatography essentially as described by Ray and Lopez-Belmonte (Ray K P and Lopez-Belmonte J (1992) Biochemical Society Transations 20 494-497). The substrate for FPT was Kras (CVIM C-terminal sequence). The cDNA for oncogenic val 12 variant of human c-Ki-ras-24B was obtained from the plasmid pSW11-1(ATCC). This was then subcloned into the polylinker of a suitable expression vector e.g. plC 147. The Kras was obtained after expression in the E. coli strain, BL21. The expression and purification of c-KI-ras-24B and the vall2 variant in E. coli has also been reported by Lowe et al (Lowe P N et al. J. Biol. Chem. (1991) 266 1672-1678).
Incubations with enzyme contained 300 nM tritiated farnesyl pyrophosphate (DuPont/New England Nuclear), 120 nM ras-CVIM, 50 mM Tris HCl pH 8.0. 5 mM MgCl2, 10 μM ZnCl2, 5 mM dithiotheitol and compounds were added at appropriate concentrations in DMSO (3% final concentration in test and vehicle control). […] Precipitated protein was then collected onto glass fibre filter mats (B) using a Tomtec® cell harvester and tritiated label was measured in a Wallac® 1204 Betaplate scintillation counter.

Compound | melting point | IC50 [1]
O=C(NCc1ccc(Cl)c(Cl)c1)c1ccc(C(=O)NC[C@@H]2C[C@H](S)CN2)nc1 (as salt: salt) [Example 13, 5-[N-(3,4-dichlorobenzyl)carbamoyl]-N-((2S,4S)-4-sulfanylpyrrolidin-2-yl-methyl)pyridine-2-carboxamide] | 101 to 105 °C | 
C=CCOC(=O)c1cc(NC(=O)[C@@H]2C[C@H](SC(C)=O)CN2C(=O)OCc2ccc([N+](=O)[O-])cc2)cc(C(=O)N(C)OC)c1 [Example 7, 5 {[(2S,4S),4-acetylsulfanyl-1-(4-nitro-benzyloxycarbonyl)-pyrrolidine-2-carbonyl]-amino}-3(N-methyl-methoxycarbamoyl)-benzoic acid allyl ester] |  | ~500 nM
